# Source: ChEMBL document CHEMBL1122834, “Synthesis and in vitro pharmacology of 7-oxabicyclo[2.2.1]heptane analogues of thromboxane A2/PGH2” (J Med Chem, 1985)
# pIC50: −log10 of the molar value.
# Key:
# Homo sapiens [1] = species: Homo sapiens; assay: Inhibitory activity against aggregation of human platelet induced by arachidonic acid; type: functional; details: read-out: I50
# Cavia porcellus [2] = species: Cavia porcellus; assay: Selectivity against histamine in smooth muscle of guinea pig trachea stimulated with histamine; type: functional; details: Muscle tissue
# Rattus norvegicus = species: Rattus norvegicus; assay: Direct effect on rat stomach strip (RSS) preparation; type: functional
# Cavia porcellus [3] = species: Cavia porcellus; assay: Selectivity against 9,11-AZO-PGH2 induced contractions of smooth muscle guinea pig trachea; type: functional
# Homo sapiens [4] = species: Homo sapiens; assay: Inhibitory activity against aggregation of human platelet induced by epinephrine 2; type: functional
# Homo sapiens [5] = species: Homo sapiens; assay: Inhibitory activity against aggregation of human platelet induced by adenosine diphosphate; type: functional
# Homo sapiens [6] = species: Homo sapiens; assay: Inhibitory activity against aggregation of human platelet induced by epinephrine 1; type: functional
# Thromboxane-A synthase [7] = target: T1, Thromboxane-A synthase (Homo sapiens, UniProt P24557); assay: Inhibitory activity against human platelet Thromboxane synthetase; details: read-out: I 50
# T1 sequence (P24557 whole entry): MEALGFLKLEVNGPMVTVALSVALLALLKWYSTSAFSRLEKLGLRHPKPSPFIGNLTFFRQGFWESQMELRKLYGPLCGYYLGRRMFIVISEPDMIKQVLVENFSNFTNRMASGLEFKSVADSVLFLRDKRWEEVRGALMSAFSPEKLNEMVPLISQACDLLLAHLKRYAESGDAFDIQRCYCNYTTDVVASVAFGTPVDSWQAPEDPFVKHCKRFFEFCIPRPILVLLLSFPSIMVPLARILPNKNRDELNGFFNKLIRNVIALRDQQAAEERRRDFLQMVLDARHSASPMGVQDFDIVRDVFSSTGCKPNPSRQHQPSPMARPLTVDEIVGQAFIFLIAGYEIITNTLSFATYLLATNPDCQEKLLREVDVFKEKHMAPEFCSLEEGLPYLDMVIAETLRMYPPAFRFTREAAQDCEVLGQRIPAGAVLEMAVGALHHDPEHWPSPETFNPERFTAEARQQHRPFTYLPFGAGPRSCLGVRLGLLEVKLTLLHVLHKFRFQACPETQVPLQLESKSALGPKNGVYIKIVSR
# Homo sapiens [8] = species: Homo sapiens; assay: stimulatory activity against aggregation of human platelet induced by adenosine diphosphate; type: functional
# Homo sapiens [9] = species: Homo sapiens; assay: stimulatory activity against aggregation of human platelet induced by epinephrine 2; type: functional
# Thromboxane-A synthase [10] = target: T1, Thromboxane-A synthase; assay: Inhibition of human platelet Thromboxane synthetase; details: read-out: I50
# Homo sapiens [11] = species: Homo sapiens; assay: stimulatory activity against aggregation of human platelet induced by arachidonic acid; type: functional
# Homo sapiens [12] = species: Homo sapiens; assay: stimulatory activity against aggregation of human platelet induced by epinephrine 1; type: functional
# Homo sapiens [13] = species: Homo sapiens; assay: Stimulatory activity against aggregation of human platelet induced by arachidonic acid; type: functional
# Homo sapiens [14] = species: Homo sapiens; assay: Stimulatory activity against aggregation of human platelet induced by epinephrine 2; type: functional
# Homo sapiens [15] = species: Homo sapiens; assay: Stimulatory activity against aggregation of human platelet induced by adenosine diphosphate; type: functional
# Homo sapiens [16] = species: Homo sapiens; assay: Stimulatory activity against aggregation of human platelet induced by epinephrine 1; type: functional
# [17] = target: T2, Thromboxane-A synthase (Homo sapiens) (UniProt P24557); details: 1000 uM
# T2 sequence (whole entry): T1 sequence (P24557 whole entry)
# Description: Inhibitory activity against human platelet Thromboxane synthetase at a dose of 1000 uM
smiles,measurement,setting,value
CCCCC[C@@H](O)/C=C/[C@@H]1C2CCC(O2)[C@H]1C/C=C\CCCC(=O)O (stereo in doubt; 4a),pIC50,Homo sapiens [1],5.38
same,pIC50,Cavia porcellus [2]; read-out: I 50,< 5.00
same,A50,Rattus norvegicus,0.51 µM
same,pIC50,Cavia porcellus [3]; read-out: I 50,4.19
same,pIC50,Homo sapiens [4]; read-out: I 50,5.00
same,pIC50,Homo sapiens [5]; read-out: I 50,3.82
same,pIC50,Homo sapiens [6]; read-out: I 50,< 3.00
same,pIC50,Thromboxane-A synthase [7],3.11
CCCCC[C@@H](O)/C=C/[C@@H]1C2CCC(O2)[C@@H]1C/C=C\CCCC(=O)O (stereo in doubt; 3a),pIC50,Cavia porcellus [2]; read-out: I50,< 5.00
same,A50,Rattus norvegicus,0.0015 µM
same,pIC50,Cavia porcellus [3]; read-out: I50,< 5.00
same,A50,Homo sapiens [8],2 µM
same,A50,Homo sapiens [9],2 µM
same,pIC50,Thromboxane-A synthase [10],3.00
same,A50,Homo sapiens [11],2 µM
same,A50,Homo sapiens [12],2 µM
CCCCC[C@@H](O)/C=C/[C@H]1C2CCC(O2)[C@H]1C/C=C\CCCC(=O)O (stereo in doubt; 2b),pIC50,Homo sapiens [1],3.44
same,pIC50,Cavia porcellus [2]; read-out: I50,< 5.00
same,A50,Rattus norvegicus,>10 µM
same,pIC50,Cavia porcellus [3]; read-out: I50,< 5.00
same,pIC50,"Homo sapiens [4]; Homo sapiens, read-out: I50",3.89
same,pIC50,"Homo sapiens [5]; Homo sapiens, read-out: I50",< 3.00
same,pIC50,Thromboxane-A synthase [10],< 3.00
same,pIC50,"Homo sapiens [6]; Homo sapiens, read-out: I50",< 3.00
CCCCC[C@H](O)/C=C/[C@@H]1C2CCC(O2)[C@H]1C/C=C\CCCC(=O)O (stereo partly specified),A50,Homo sapiens [13],30 µM
same,pIC50,Homo sapiens [1]; Homo sapiens,6.52
same,A50,Homo sapiens [14],30 µM
same,pIC50,Cavia porcellus [2]; read-out: I50,5.62
same,A50,Rattus norvegicus,2.9 µM
same,pIC50,Cavia porcellus [3]; read-out: I50,6.47
same,A50,Homo sapiens [15],30 µM
same,pIC50,"Homo sapiens [4]; Homo sapiens, read-out: I50",5.38
same,pIC50,"Homo sapiens [5]; Homo sapiens, read-out: I50",5.80
same,pIC50,Thromboxane-A synthase [10],3.00
same,pIC50,"Homo sapiens [6]; Homo sapiens, read-out: I50",5.66
same,A50,Homo sapiens [16],30 µM
CCCCC[C@@H](O)/C=C/[C@H]1C2CCC(O2)[C@@H]1C/C=C\CCCC(=O)O (stereo in doubt; 4d),pIC50,Homo sapiens [1],3.00
same,pIC50,Homo sapiens [4]; read-out: I50,3.85
same,pIC50,"Homo sapiens [5]; Homo sapiens, read-out: I50",< 3.00
same,pIC50,Thromboxane-A synthase [10],3.33
same,pIC50,"Homo sapiens [6]; Homo sapiens, read-out: I50",3.17
CCCCC[C@H](O)/C=C/[C@H]1C2CCC(O2)[C@@H]1C/C=C\CCCC(=O)O (stereo partly specified),A50,Homo sapiens [13],0.26 µM
same,pIC50,Homo sapiens [1]; Homo sapiens,4.64
same,A50,Homo sapiens [14],0.26 µM
same,pIC50,Cavia porcellus [2]; read-out: I50,< 5.00
same,inhibition,[17],71%
same,A50,Rattus norvegicus,0.0009 µM
same,pIC50,Cavia porcellus [3]; read-out: I50,5.66
same,A50,Homo sapiens [15],0.26 µM
same,pIC50,"Homo sapiens [4]; Homo sapiens, read-out: I50",4.25
same,pIC50,"Homo sapiens [5]; Homo sapiens, read-out: I50",< 3.00
same,pIC50,Thromboxane-A synthase [10],< 3.00
same,pIC50,"Homo sapiens [6]; Homo sapiens, read-out: I50",< 3.00
same,A50,Homo sapiens [16],0.26 µM
CCCCC[C@H](O)/C=C/[C@H]1C2CCC(O2)[C@H]1C/C=C\CCCC(=O)O (stereo partly specified),A50,Homo sapiens [13],20 µM
same,pIC50,Homo sapiens [1]; Homo sapiens,5.04
same,A50,Homo sapiens [14],20 µM
same,pIC50,Cavia porcellus [2]; read-out: I50,< 5.00
same,A50,Rattus norvegicus,0.22 µM
same,pIC50,Cavia porcellus [3]; read-out: I50,5.68
same,A50,Homo sapiens [15],20 µM
same,pIC50,"Homo sapiens [4]; Homo sapiens, read-out: I50",6.22
same,pIC50,"Homo sapiens [5]; Homo sapiens, read-out: I50",< 3.00
same,pIC50,Thromboxane-A synthase [10],< 3.00
same,pIC50,"Homo sapiens [6]; Homo sapiens, read-out: I50",< 3.00
same,A50,Homo sapiens [16],20 µM
CCCCC[C@@H](O)/C=C/[C@H]1C2CCC(O2)[C@@H]1C/C=C\CCCC(=O)O (stereo in doubt; 5b),pIC50,Homo sapiens [1],5.02
same,pIC50,Cavia porcellus [2]; read-out: I50,< 5.00
same,A50,Rattus norvegicus,0.88 µM
same,pIC50,Cavia porcellus [3]; read-out: I50,5.31
same,pIC50,Homo sapiens [4]; read-out: I50,6.15
same,pIC50,Thromboxane-A synthase [10],< 3.00
same,pIC50,Homo sapiens [6]; read-out: I50,< 3.00
CCCCC[C@@H](O)/C=C/[C@@H]1C2CCC(O2)[C@@H]1C/C=C\CCCC(=O)O (stereo in doubt; 2d),pIC50,Homo sapiens [1]; Homo sapiens,3.85
same,pIC50,"Homo sapiens [5]; Homo sapiens, read-out: I50",< 3.00
same,pIC50,Thromboxane-A synthase [10],3.25
CCCCC[C@H](O)/C=C/[C@@H]1C2CCC(O2)[C@@H]1C/C=C\CCCC(=O)O (stereo in doubt; 3b),pIC50,Homo sapiens [1],6.22
same,pIC50,Cavia porcellus [2]; read-out: I50,< 5.00
same,A50,Rattus norvegicus,0.4 µM
same,pIC50,Cavia porcellus [3]; read-out: I50,6.92
same,pIC50,Homo sapiens [4]; read-out: I50,5.12
same,pIC50,Homo sapiens [5]; read-out: I50,3.51
same,pIC50,Thromboxane-A synthase [10],3.00
same,pIC50,Homo sapiens [6]; read-out: I50,3.17
CCCCC[C@H](O)/C=C/[C@@H]1C2CCC(O2)[C@@H]1C/C=C\CCCC(=O)O (stereo in doubt; 2c),pIC50,Homo sapiens [1],3.51
same,pIC50,"Homo sapiens [4]; Homo sapiens, read-out: I50",5.22
same,pIC50,Homo sapiens [5]; read-out: I50,< 3.00
same,pIC50,Thromboxane-A synthase [10],< 3.00
same,pIC50,"Homo sapiens [6]; Homo sapiens, read-out: I50",< 3.00
CCCCC[C@@H](O)/C=C/[C@@H]1C2CCC(O2)[C@H]1C/C=C\CCCC(=O)O (stereo in doubt; 5d),pIC50,Homo sapiens [1],4.02
same,pIC50,"Homo sapiens [4]; Homo sapiens, read-out: I50",4.28
same,pIC50,"Homo sapiens [5]; Homo sapiens, read-out: I50",< 3.00
same,pIC50,Thromboxane-A synthase [10],< 3.00
same,pIC50,"Homo sapiens [6]; Homo sapiens, read-out: I50",< 3.00
CCCCC[C@@H](O)/C=C/[C@H]1C2CCC(O2)[C@H]1C/C=C\CCCC(=O)O (stereo in doubt; 3d),pIC50,Homo sapiens [1],4.03
same,pIC50,Homo sapiens [4]; read-out: I50,3.77
